Drawing on ChEMBL document CHEMBL4342418, “1,2,3-Triazole-containing hybrids as potential anticancer agents: Current developments, action mechanisms and structure-activity relationships” (Eur J Med Chem, 2019), this text covers IC50 and GI50 for 15 molecules.

One assay relates to KB. As to the kind of experiment: Antiproliferative activity against human KB cells by MTT assay. It is filed as functional, cell-based.
Assay [1] relates to HepG2. As to the kind of experiment: Antiproliferative activity against human HepG2 cells by MTT assay. The format is functional, cell-based. A general note: Tetrazolium assays rely on reduction of a dye to a coloured formazan, in cell work by metabolically active cells.
Assay [2] has as its system MCF7. As to the kind of experiment: cells. As to conditions: Homo sapiens. The format is functional, cell-based.
Description: Antiproliferative activity against human MCF7 cells by MTT assay
In assay [3] the test system is MDA-MB-231. As to the kind of experiment: Antiproliferative activity against human MDA-MB-231 cells by MTT assay. The format is functional, cell-based.
For assay [4], the system named is T47D. As to the kind of experiment: Antiproliferative activity against human T47D cells by MTT assay. It is filed as functional, cell-based.
The subject of assay [5] is DU-145. As to the kind of experiment: Antiproliferative activity against human DU145 cells assessed as reduction in cell viability after 48 hrs by MTT assay. The format is functional, cell-based. To be noted: DU-145, 48 h.
The next assay deals with A549. As to the kind of experiment: Antiproliferative activity against human A549 cells assessed as reduction in cell viability after 48 hrs by MTT assay. It is filed as functional, cell-based. As to conditions: A549, 48 h.
The test system of a further assay is HT-29. As to the kind of experiment: Antiproliferative activity against human HT-29 cells assessed as reduction in cell viability after 48 hrs by MTT assay. The format is functional, cell-based. As to conditions: HT-29, 48 h.
Assay [6] concerns HCT-116. As to the kind of experiment: Antiproliferative activity against human HCT116 cells by MTT assay. The format is functional, cell-based.
The test system of assay [7] is MCF7. As to the kind of experiment: Antiproliferative activity against human MCF7 cells assessed as reduction in cell viability after 48 hrs by MTT assay. The format is functional, cell-based. To be noted: MCF7, 48 h.
Assay [8] is described as follows: Antiproliferative activity against human SMCC7721 cells assessed as reduction in cell viability after 48 hrs by MTT assay. The format is functional, cell-based.
In the next assay the test system is SW480. As to the kind of experiment: Antiproliferative activity against human SW480 cells assessed as reduction in cell viability after 48 hrs by MTT assay. It is filed as functional, cell-based. To be noted: SW480, 48 h.
In another assay the test system is MCF-10A. As to the kind of experiment: Cytotoxicity against human MCF10A cells by MTT assay. The format is cell-based.
Assay [9] deals with T47D. As to the kind of experiment: Antiproliferative activity against human T47D cells assessed as reduction in cell viability after 48 hrs by MTT assay. It is filed as functional, cell-based.
Assay [10] relates to HCT-116. As to the kind of experiment: Antiproliferative activity against human HCT116 cells assessed as reduction in cell viability after 48 hrs by MTT assay. To be noted: HCT-116, 48 h. The format is functional, cell-based.
In another assay the test system is Caco-2. As to the kind of experiment: Antiproliferative activity against human Caco2 cells assessed as reduction in cell viability after 48 hrs by MTT assay. It is filed as functional, cell-based. To be noted: Caco-2, 48 h.
Assay [11] has as its system HepG2. As to the kind of experiment: Antiproliferative activity against human HepG2 cells by SRB assay. It is filed as functional, cell-based.
In a further assay the test system is HeLa. As to the kind of experiment: Antiproliferative activity against human HeLa cells by SRB assay. The format is functional, cell-based.
The test system of assay [12] is MDA-MB-231. As to the kind of experiment: Antiproliferative activity against human MDA-MB-231 cells by SRB assay. The format is functional. Background: Sulforhodamine B stains cellular protein and so reports cell mass.
In assay [13] the test system is DU-145. As to the kind of experiment: Antiproliferative activity against human DU145 cells by SRB assay. The format is functional, cell-based.

Structures are written as SMILES.

A word on the IC50: it is the concentration needed to halve the response being measured. For `O=C(NCc1cn(CC(O)Cn2c3c(c4ccccc4c2=O)C(=O)c2ccccc2-3)nn1)c1ccc(Br)cc1` (stereo unspecified), the half-inhibitory concentration (IC50) in the assay with KB was 0.79 µM; in the assay with HepG2 [1], 0.76 µM.

Regarding `COc1ccc(Cn2cc(Cn3c4ccccc4c(=O)c4cc(OC)ccc43)nn2)cc1`, the half-maximal inhibitory concentration (IC50) in the assay with MCF7 [2], with MDA-MB-231 [3] and in the assay with T47D [4] was 11 to 16.6 µM each time.

Turning to `O=C(c1cn(Cc2cccc(Oc3ccccc3)c2)nn1)c1cccnc1Nc1ccc(F)cc1`, the IC50 in the assay on DU-145 [5], in the assay with A549 and in the assay with HT-29 was 0.1 to 1.1 µM in each case.

In the case of `Cc1cn([C@H]2C[C@H](n3cc(CCOC(=O)CCC(=O)O[C@@H]4O[C@@H]5O[C@@]6(C)CC[C@H]7[C@H](C)CC[C@@H]([C@H]4C)[C@@]57OO6)nn3)[C@@H](CO)O2)c(=O)[nH]c1=O`, the IC50 with KB worked out at 16.5 µM; with HepG2 [1] it was 44.3 µM.

In the case of `CC(=O)N1N=C(c2nnn(-c3ccc(-n4nnc(C5=NN(C(C)=O)C(c6ccccc6)C5)c4C)cc3)c2C)CC1c1ccccc1` (stereo unspecified), the results for the concentration for half-maximal inhibition (IC50) in the assay with MCF7 [2], with HCT-116 [6] and in the assay with HepG2 [1] were 66.8 µg/mL, more than 100 µg/mL and more than 100 µg/mL, respectively.

As for `COc1cc([C@@H]2c3cc4c(cc3[C@H](n3cc(CO[C@@H]5O[C@H](CO[C@@H]6O[C@H](CO)[C@@H](O)[C@H](O)[C@H]6O)[C@@H](O)[C@H](O)[C@H]5O)nn3)[C@H]3COC(=O)[C@H]23)OCO4)cc(OC)c1OC`, the half-maximal inhibitory concentration (IC50) (in the assay on MCF7 [7]; in assay [8]; with SW480; in the assay with A549) was 0.67 to 7.41 µM throughout.

As to `Cc1c(C(F)(F)F)cc(Cl)c(Cl)c1-n1nnc(-c2nn(-c3ccccc3)cc2C=O)c1C`, the IC50 with MCF7 [2] was 6.8 to 27.6 µM; with MDA-MB-231 [3], 6.8 to 27.6 µM; with MCF-10A it was 21.9 to 25.3 µM.

For `Cc1c(C(=O)Nc2ccccc2)nnn1-c1ccnc2cc(Cl)ccc12`, the IC50 in the assay with MCF7 [2] was determined as 31.7 µM; in the assay with MDA-MB-231 [3], 19.1 µM.

With `O=C(Cn1cc(C(O)c2ccccc2)nn1)N1CCN(c2nc3ccccc3s2)CC1` (stereo unspecified), the IC50 with MCF7 [7], in the assay with T47D [9], in the assay with HCT-116 [10] and in the assay on Caco-2 was 33 to 154 µM in each case.

The GI50 is the concentration that inhibits growth by half. Take `O=c1oc(-c2ccccc2)nn1Cc1cn(Cc2ccccc2)nn1`: the 50% growth inhibitory concentration (GI50) in the assay with HepG2 [11], in the assay on HeLa, in the assay with MDA-MB-231 [12] and with DU-145 [13] was 0.82 to 2.39 µM in each case.

For `C=C(C)[C@@H]1CC[C@]2(COC(=O)/C=C/C(=O)OCc3cn([C@H]4C[C@H](n5ccc(=O)[nH]c5=O)O[C@@H]4CO)nn3)CC[C@]3(C)[C@H](CC[C@@H]4[C@@]5(C)CC[C@H](O)C(C)(C)[C@@H]5CC[C@]43C)C12` (stereo partly specified), the values for the half-inhibitory concentration (IC50) in the assay on KB and in the assay with HepG2 [1] were 0.3 µM and 1.3 µM, respectively.

For `Cc1c(C2=NN(C(=S)NCc3ccccc3)C(c3ccccc3)C2)nnn1-c1ccc(-n2nnc(C3=NN(C(=S)NCc4ccccc4)C(c4ccccc4)C3)c2C)cc1` (stereo unspecified), the results for the IC50 with MCF7 [2], with HCT-116 [6] and in the assay on HepG2 [1] were 43.5 µg/mL, more than 100 µg/mL and more than 100 µg/mL, respectively.

With `Cc1ccc(-c2nn(Cc3cn(Cc4ccccc4F)nn3)c(=O)o2)cc1`, the 50% growth inhibitory concentration (GI50) in the assay on HepG2 [11], in the assay on HeLa, in the assay with MDA-MB-231 [12] and in the assay on DU-145 [13] was 0.82 to 2.39 µM each time.

On to `O=C(Cn1cc(C(O)(c2ccccc2)c2ccccc2)nn1)N1CCN(c2nc3ccccc3s2)CC1`, for which the IC50 in the assay on MCF7 [7], in the assay on T47D [9], in the assay on HCT-116 [10] and in the assay on Caco-2 was 33 to 154 µM each time.

Consider `CNC(=S)N1N=C(c2nnn(-c3ccc(-n4nnc(C5=NN(C(=S)NC)C(c6ccccc6)C5)c4C)cc3)c2C)CC1c1ccccc1` (stereo unspecified), for which the figures for the IC50 in the assay with MCF7 [2], in the assay on HCT-116 [6] and in the assay with HepG2 [1] were 3.46 µg/mL, more than 100 µg/mL and more than 100 µg/mL, respectively.
